Source: patent publication US20170319562A1, “Compositions and Methods for Extended Therapy with Aminopyridines” (Acorda Therapeutics, Inc., priority 2009, published 2017)
Several values for one entry are separate records, joined by “and”; a condition that tells them apart may be missing. Identical values can stand only once.

Key:
[1] = system: patients with multiple sclerosis; assay: MS-F204 Phase 3 double-blind placebo-controlled study
Experimental: Each of two Phase 3 studies (MS-F203 and MS-F204) was a parallel group, randomized, double-blind study comparing 4-aminopyridine-SR 10 mg b.i.d. with placebo. […] The 12-item Multiple Sclerosis Walking Scale and the Subject Global Impression and Clinician Global Impression were used to validate the clinical meaningfulness of the Timed-Walk response criterion. Secondary efficacy variables included walking speed, Lower Extremity Manual Muscle Test (LEMMT) score and the Ashworth spasticity score, the latter two averaged across eight and six lower extremity muscle groups, respectively. Duration of double-blind treatment on which efficacy was based was 14 weeks in the first study and 8 weeks in the second study. A two-week single blind placebo run-in period preceded the double-blind period.
In the MS-F204 study, the primary efficacy variable was also Responder status, based on consistent improvement in walking speed on the T25FW. A Timed-Walk Responder was defined as a patient with a faster walking speed for at least three of the first four double-blind visits as compared to the maximum walking speed for any of the pre-treatment visits and the post-treatment visit.
The secondary efficacy variable was average change from baseline in LEMMT score during the double-blind period, comparing 4-aminopyridine-treated Timed-Walk Responders and Non-Responders separately against the placebo-treated group. Other measures, the MSWS-12, SGI, CGI and Ashworth score, were included only for the purposes of a pooled analysis and comparison with the results of the other two trials.
This study in this Example was a 39 center, double-blind trial in patients with definite multiple sclerosis of any course type. Participants were randomized to 9 weeks of treatment with 4-aminopyridine (10 mg twice daily; n=120) or placebo (n=119). Response was defined as consistent improvement on the Timed 25-Foot Walk, with percentage of Timed Walk Responders (TWR) in each treatment group as the primary outcome. The last on-treatment visit provided data from 8-12 h post-dose, to examine maintenance of effect.
Study Design. This was a randomized, double-blind, placebo-controlled trial, as depicted in FIG. 14. Patients underwent screening without receiving any study medication and eligible patients returned one week later (Visit 0, see FIG. 14). Patients then entered a two-week, single-blind, placebo run-in period; Visit 1 occurred at the end of the first week of placebo run-in and Visit 2 at the end of the second week. Patients were instructed to take one blinded tablet (supplied in appropriate quantities at each clinic visit) every 12 hours during the treatment phase.
At Visit 2, patients were randomized equally to one of two treatment groups, sustained release 4-aminopyridine (4-aminopyridine-SR, 10 mg twice daily) or placebo, using a predetermined, computer-generated randomization schedule, blocked and stratified by treatment-site and pre-numbered treatment kits. Independent statistical, packaging and distribution contractors were used to maintain the blind for all other personnel.
Following randomization, patients returned every two weeks for evaluation at Visits 3-6. The patients were then instructed to return in one week for Visit 7 and to arrange the timing of their last dose of study medication such that the clinic visit would allow for assessments to be made between 10 and 12 hours after this last dose was taken. Following Visit 7, patients began a two-week period of no treatment, returning for follow-up assessments at Visit 8.

[2] = Single 20 mg intravenous dose, volume of distribution; type: in vivo; conditions: plasma
From the text: Measurable levels are present in the saliva.

[3] = human, in vivo, po, 10 mg
[4] = system: chronically injured spinal cord of guinea pigs; conditions: cited from earlier work
[5] = two formulations of IR tablets; cited from earlier work

Structure (SMILES): Nc1ccncc1 [4-aminopyridine]
- Mantel-Haenszel Odds Ratio for Timed Walk Response vs placebo ([1]; 10 mg b.i.d.): 8.14
- Timed-Walk Responder rate ([1]; 10 mg b.i.d.): 42.9%
- plasma concentration below which there is a marked reduction in walking speed improvement ([1]; FIG. 27): below 13 ng/mL
- plasma concentration below which there is a reduction in walking speed improvement ([1]; FIG. 27): below 15 ng/mL
- average change from baseline in walking speed (Visits 3-6) ([1]; Timed Walk Non-Responders): 0.12 ft/sec
- average improvement in walking speed from baseline, double-blind efficacy period (Visits 3-6) ([1]; Timed Walk Non-responders, 10 mg b.i.d.): 6.0%
- average change from baseline in walking speed (Visits 3-6) ([1]; Timed Walk Responders): 0.51 ft/sec
- improvement from baseline walking speed at Visit 7, first evaluation (last on-treatment visit) ([1]; Timed Walk Responders): 25.7%
- average improvement in walking speed from baseline, double-blind efficacy period (Visits 3-6) ([1]; Timed Walk Responders, 10 mg b.i.d.): 24.7% and 25%
- mean improvement in walking speed at Visit 7 ([1]; Timed Walk Responders, 9-10 h post dose): 25.5%
- mean improvement in walking speed at Visit 7 ([1]; Timed Walk Responders, 10-11 h post dose): 25.3%
- mean improvement in walking speed at Visit 7 ([1]; Timed Walk Responders, 11-12 h post dose): 20.1% and 20%
- reduction of average plasma concentration at the first assessment at Visit 7 ([1]; human, in vivo, 10 mg b.i.d.): approximately 25%
- Vd [2]: 2.6 L/kg
- time of Cmax after dose administration [3]: approximately 1.1 hours
- most effective concentration [4]: about 10 μM
- absolute bioavailability [5]: 95%
